{"source": "ChEMBL document CHEMBL1649453", "about": "“Activity of temocillin against KPC-producing Klebsiella pneumoniae and Escherichia coli” (Antimicrob Agents Chemother, 2009)", "key": {"Klebsiella pneumoniae": {"tested_on": "Klebsiella pneumoniae", "assay": "Antimicrobial activity against Klebsiella pneumoniae expressing beta-lactamase KPC gene by agar dilution method", "assay_type": "functional"}, "Escherichia coli [1]": {"tested_on": "Escherichia coli", "assay": "Antimicrobial activity against Escherichia coli clinical isolates expressing beta-lactamase KPC gene by agar dilution method", "assay_type": "functional"}, "Escherichia coli [2]": {"tested_on": "Escherichia coli", "assay": "Antimicrobial activity against Escherichia coli DH10B harboring pBCSK plasmid expressing beta-lactamase KPC gene by agar dilution method", "assay_type": "functional", "settings": "K-12 DH10B"}, "Escherichia coli [3]": {"tested_on": "Escherichia coli", "assay": "Antimicrobial activity against Escherichia coli DH10B by agar dilution method", "assay_type": "functional", "settings": "K-12 DH10B"}, "[4]": {"assay": "Cmax in human serum at 1 gram, iv", "assay_type": "ADME, organism-based", "design": "route intravenous"}, "[5]": {"assay": "Protein binding in human serum at 1 gram, iv", "assay_type": "ADME, organism-based", "settings": "read-out: PB (converted)"}, "[6]": {"assay": "Half life in human serum at 1 gram, iv", "assay_type": "ADME, organism-based"}, "[7]": {"assay": "Drug level in human urine at 500 mg, im bid for 3 days", "assay_type": "ADME, organism-based", "settings": "read-out: Drug uptake"}}}
{"smiles": "CO[C@@]1(NC(=O)C(C(=O)O)c2ccsc2)C(=O)N2[C@@H](C(=O)O)C(C)(C)S[C@@H]21", "note": "(some centres undefined) [TEMOCILLIN]", "values": [{"measurement": "MIC50", "setting": "Klebsiella pneumoniae", "value": 32, "unit": "µg/mL"}, {"measurement": "MIC90", "setting": "Klebsiella pneumoniae", "value": 32, "unit": "µg/mL"}, {"measurement": "MIC", "setting": "Escherichia coli [1]", "value": 8, "unit": "µg/mL"}, {"measurement": "MIC", "setting": "Escherichia coli [2]", "value": 8, "unit": "µg/mL"}, {"measurement": "MIC", "setting": "Escherichia coli [3]", "value": 8, "unit": "µg/mL"}, {"measurement": "Cmax", "setting": "[4]", "value": 160, "unit": "µg/mL"}, {"measurement": "fraction unbound", "setting": "[5]", "value": 0.15}, {"measurement": "half-life", "setting": "[6]", "value": 4, "unit": "h"}, {"measurement": "concentration at 72 h", "setting": "[7]", "value": 500, "unit": "µg/mL"}]}
